Experimental data published in patent US8404279B2, “Method for improving the bud quality of a plant” (Bayer CropScience AG, priority 2007, dated 2013).

Tests used:
[1] = tested on: flower bud dieback on pear trees (Conference variety); test: Flower bud quality field trial against flower bud dieback on young pear trees; assay type: in vivo, pear trees (Conference cultivar)
Description: (§1) During three consecutive years 2004, 2005 and 2006, a trial was carried out on young pear trees of the Conference cultivar on a Quince Adams stock. The pear trees of this orchard were planted in 1999 according to the system of a single row at a planting distance of 3.5 m between the rows and 1.5 m in the row with a tree height of 3 m.
(§2) During the 2004 trial, three products were compared in an arbitrary block design with 10 trees per plot in four repeats: the observations were made on the 8 trees inside the plot. […] The applications were in the post-flower period at an interval of 10 days.
(§3) In 2005, the same applications were repeated on the same trees.
In 2006, the complete trial was repeated on new trees in the same orchard. The fosetyl-Al doses varying between 2 and 3.75 kg/ha of standard orchard (corresponding to doses varying from 1.33 to 2.50 kg/ha of foliar surface area) were applied in the post-flower period during the months of May and June at an interval of 5 or 10 days between the treatments. Benzothiadiazole applied at a dose of 200 g/ha of standard orchard (corresponding to a dose of 133 g/ha of foliar surface area) was included as reference product in order to induce plant defense reactions by the trees.
(§4) After one year during flowering, the effect of the treatments on the quality of the flower bud was evaluated. Statistical analysis of the various parameters is performed (Unistat Statistical Package, Version 5.5). The original or processed data are analyzed according to the General Linear Model and the treatment means are separated in a standard manner using the Duncan multiple classification test (5% level).

[2] = tested on: pear trees (Conference cultivar); test: Productivity of the pear trees after the treatments (field trial); assay type: in vivo; details: 2006, treated 2004 and 2005; 3 x 0.2 kg/ha May interval 10 + 3 x 0.2 kg/ha June interval 14
Description: as §1, §2, §3, §4

[3] = treated 2004, 2005 flower buds, 3 x dose 3 (kg/ha) May, interval 10
[4] = treated 2004, 2005 flower buds, 3 x dose 11.25 (kg/ha) May, interval 10
[5] = treated 2004, 2005 flower buds, 3 x 0.2 kg/ha May interval 10 + 3 x 0.2 kg/ha June interval 14
[6] = treated 2006, 2007 flower buds, 3 x 0.2 kg/ha May, interval 10

Compound | Buds of good quality [1, 3] [%] | Number of incomplete buds/tree [1, 3] [buds/tree] | Buds of good quality [1, 4] [%] | Number of incomplete buds/tree [1, 4] [buds/tree] | Average weight [2] [g] | Number of fruits/tree [2] [fruits/tree] | Productivity (kg/tree) [2] [kg/tree] | Good quality buds (%) 1 yw S ([1]; 1-year old wood side position, treated 2004 and 2005, 2006 flower buds, 3 x 0.2 kg/ha May interval 10 + 3 x 0.2 kg/ha June interval 14) [%] | Good quality buds (%) 1 yw T ([1]; 1-year old wood terminal position, treated 2004 and 2005, 2006 flower buds, 3 x 0.2 kg/ha May interval 10 + 3 x 0.2 kg/ha June interval 14) [%] | Good quality buds (%) 2 yw ([1]; 2-year old wood, treated 2004 and 2005, 2006 flower buds, 3 x 0.2 kg/ha May interval 10 + 3 x 0.2 kg/ha June interval 14) [%] | activity on flower bud quality ([1]; 2004 treatments, 2005 buds, reference product) | Buds of good quality [1, 5] [%] | Number of incomplete buds/tree [1, 5] [buds/tree] | Good quality buds (%) Per tree ([1]; treated 2004 and 2005, 2006 flower buds, 3 x 0.2 kg/ha May interval 10 + 3 x 0.2 kg/ha June interval 14) [%] | Buds that have died back (%) [1, 6] [%] | Good quality buds (%) [1, 6] [%] | Number of incomplete buds/tree [1, 6] [buds/tree]
potassium phosphonate | 89.5 | 7.2 | 92.4 | 4.8 | – | – | – | – | – | – | – | – | – | – | – | – | –
c1ccc2snnc2c1 [Benzothiadiazole, benzothiadiazole] | – | – | – | – | 163.2 | 113.88 | 18.5 | 56.6 | 54.6 | 58.5 | insufficient activity | 71.2 | 22.5 | 62.8 | 43.5 | 44.2 | 12.3
